Experiments:
[1] = tested on: acute kidney ischemic reperfusion (IR) injury in C57BL6J mice; assay: Acute kidney ischemic reperfusion (IR) injury animal model; type: in vivo, mouse; conditions: 4 μg/kg and 8 μg/kg, tail vein
Method: Vehicle and Compound 1 (4 μg/kg or 8 μg/kg) were administered to 8-week-old male C57BL6J mice via the tail vein 24 hours before, 1 hour before, and 12 hours after ischemic reperfusion (IR) surgery. The surgery was performed by blocking the artery leading to the kidney to induce ischemia for 37 minutes. The blocked artery was released, and 24 hours later, the mice were anesthetized and autopsied. Other part was used to synthesize cDNA, and a kidney damage marker, NGAL was identified by real-time PCR. And serum was separated from the blood, and creatinine, which is a kidney damage marker in the serum, was examined, and the results are shown in FIG. 3.

[2] = tested on: DSS-induced colitis in C57BL6J JmcSlc mice; assay: DSS colitis, inflammatory bowel disease animal model; type: in vivo, mouse; conditions: for colonic epithelial cell recovery (H&E): FIG. 6A
Method: Colitis was induced in 8-week-old male C57BL6J JmcSlc mice by feeding 3.5% dextran sodium sulfate (DSS) ad libitum for 9 days, and then replacing the same with normal drinking water. The vehicle and Compound 1 (0.5 mg/kg or 1 mg/kg) were orally administered to the experimental animal model prepared as described above daily from 2 days before DSS drinking until the end of drinking. In order to determine the degree of colonic inflammation, the degree of longitudinal contraction of the isolated colon was measured, and the histological scores were confirmed through H&E staining, which is shown in FIG. 6. Furthermore, total RNA was isolated from the isolated colon, cDNA was synthesized, and the expression levels of representative cytokines (IFNγ, IL-1β, IL-4, IL-6, IL-10, IL-12β, IL-17α, and TNFα) were measured and compared using qPCR, and the results are shown in FIG. 7.

[3] = tested on: LPS-induced sepsis in C57BL6J mice; assay: LPS-induced sepsis animal model, viability; type: in vivo, mouse; conditions: for Viability: 15 mg/kg i.p. before 50 mg/kg LPS
Method: 50 mg/kg of lipopolysaccharide (LPS) administration dose corresponds to the ‘half lethal dose’ that causes death of one half of the population within 24 hours. […] The animal experiment was conducted with six 8-week-old male C57BL6J mice per group. Each mouse was intraperitoneally administered 15 mg/kg of Compound 1 or pretreated with 100 μL of 10% DMSO (vehicle control). 30 minutes later, 50 mg/kg lipopolysaccharide was intraperitoneally injected into each mouse, and the viability was examined for 80 hours, and the results are shown in FIG. 9 and Table 2.

[4] = tested on: bone marrow-derived dendritic cells (BMDCs); assay: IL-1β release (inflammasome formation) in LPS/ATP-stimulated bone marrow-derived dendritic cells, ELISA; type: cell-based, C57BL6 mice; conditions: versus vehicle control
Method: Furthermore, to verify the anti-inflammatory effect at a cellular level, bone marrow cells of C57BL6 mice were treated with 20 ng/ml of GM-CSF and IL-4, and 6 days later, bone marrow-derived dendritic cells (BMDCs) were collected. The BMDCs were prepared at 1×10^6 cells/mL and stabilized for one day, and then subsequent experiments were conducted. The above dendritic cells were treated with 500 ng/ml of LPS for 3 hours to prime pro-IL1B, and then treated with Compound 1 (0 μM, 0.01 µM, 0.1 μM, 1 μM, and 10 μM) for 15 minutes. Next, 5 mM of ATP was treated, which induces inflammasome formation by converting pro-IL1B to IL-1B through pro-IL1B cleavage, and 30 minutes later, the concentration of IL-1B in the supernatant was measured by ELISA, and the results are shown in FIG. 10 and Table 3.

NCI-H295R cells = assay: Cortisol production, Cushing's syndrome cell model, ELISA; type: cell-based, human; conditions: 0.1, 0.5 and 1 μM; 8-Br-cAMP 0.5 mM; FIG. 14
Method: NCI-H295R cells (ATCC #CRL-2128), which are a human adrenocortical carcinoma cell line, were seeded at a density of 2.5×10^5 cells/well in a 24-well plate. The cells were cultured for 48 hours, and then they were pretreated with Compound 1 (0.1 μM, 0.5 μM, and 1 μM) for 12 hours. Furthermore, to increase cortisol synthesis, the cells were treated with 8-bromoadenosine […] (8-Br-CAMP) at a concentration of 0.5 mM, and then re-treated with Compound 1, and allowed to react for 24 hours. After the reaction, the cell culture medium was collected, and the amount of cortisol produced in the cells was measured using an ELISA kit, and the results are shown in FIG. 14.

[5] = Growth inhibition of normal cells, Cell Counting Kit-8; type: cell-based, human (BJ); hamster (CHO); murine (Raw264.7); mouse (L929); conditions: normal cells, concentration of up to less than 40 μM, 10% FBS, FIG. 15
Method: (§1) In order to verify the growth inhibitory effect of Compound 1 on various normal and cancer cell lines, 25 types of cell lines listed in Table 7 below were tested. In detail, each cell was seeded at a density of 2×10^4 cells/well in a 96-well plate and cultured for 24 hours, and then the medium was replaced with a medium comprising 0.5% (for cancer cells) or 10% (for normal cells) FBS, and Compound 1 was treated at various concentrations. 24 hours later, 10 μL of Cell Counting Kit-8 (Dojindo Molecular Technologies) was added, and 1 hour later, absorbance at 480 nm was measured using a microplate reader (TECAN SPARK), and the results are shown in FIGS. 15 to 21.

[6] = tested on: normal cells (BJ, CHO, Raw264.7, L929); assay: as above; type: cell-based, human (BJ); hamster (CHO); murine (Raw264.7); mouse (L929); conditions: concentrations of up to less than 40 μM, 24 hours
Method: as §1

cancer cells = assay: Growth inhibition of cancer cells, Cell Counting Kit-8; type: cell-based; conditions: 24 hours, 0.5% FBS; FIGS. 16 to 20
Method: as §1

[7] = versus vehicle-treated IR, FIG. 2
[8] = colon tissue, qPCR, versus vehicle, FIG. 7

For `CC(C(=O)NNc1ccc(F)cc1)n1cc(-c2cc(F)cc3c2-c2ccccc2C3(O)C(F)(F)F)cn1` (centres unmarked) [Compound 1, 2-(4-(2-fluoro-9-hydroxy-9-(trifluoromethyl)-9H-fluoren-4-yl)-1H-pyrazol-1-yl)-N′-(4-fluorophenyl)propanehydrazide], the “NGAL RNA expression” value ([1]; kidney, real-time PCR, p<0.01 versus IR+Vehicle, FIG. 3) was “significantly reduced”, the serum creatinine ([1]; p<0.01 versus IR+Vehicle, FIG. 3) was “significantly reduced” and the “apoptosis (TUNEL staining) of kidney tissue” value [1, 7] was “significant reduction in the apoptosis”. For the same compound, the “renal tubular tissue damage (H&E staining)” value [1, 7] was “significant reduction in the renal tubular tissue damage”, the “longitudinal contraction of colon” value ([2]; 0.5 mg/kg and 1 mg/kg, oral daily, versus vehicle, FIGS. 6C and 6D) was “the contraction was alleviated both in the group administered 0.5 mg/kg of Compound 1 and in the group administered 1 mg/kg of Compound 1, as compared to the vehicle administration group, and the effect increased as the administration amount increased” and the “colonic epithelial cell recovery (H&E)” value ([2]; 0.5 mg/kg, oral daily) was “the recovery was slight”. The “colonic epithelial cell recovery (H&E)” value ([2]; 1 mg/kg, oral daily) was “remarkable epithelial cell recovery”, the “tissue (histological) score” value ([2]; 1 mg/kg, oral daily, FIG. 6B) was “the lowest score” and the “IFNγ mRNA expression” value [2, 8] was “significantly reduced”. The “IL-4 mRNA expression” value [2, 8] was “increased”, the “IL-6 mRNA expression” value [2, 8] was “significantly reduced” and the “IL-12b mRNA expression” value [2, 8] was “significantly reduced”. The “IL-17a mRNA expression” value [2, 8] was “significantly reduced”, the “TNFα mRNA expression” value [2, 8] was “significantly reduced” and the Viability ([3]; 0 h) was 100%. For the same compound, the Viability ([3]; 20 h) was 100%, the Viability ([3]; 24 h) was 83.3% and the Viability ([3]; 28 h) was 83.3%. For the same compound, the Viability ([3]; 32 h) was 83.3%, the Viability ([3]; 36 h) was 66.7% and the Viability ([3]; 40 h) was 66.7%. The Viability ([3]; 44 h) was 66.7%, the Viability ([3]; 48 h) was 66.7% and the Viability ([3]; 50 h) was 66.7%. It also gave a Viability ([3]; 60 h) of 50%, a Viability ([3]; 70 h) of 50% and a Viability ([3]; 80 h) of 50%. For the same compound, the “viability in sepsis-induced animal model (in words)” value ([3]; 15 mg/kg i.p., p<0.01 versus LPS+vehicle, FIG. 9) was “had the effect of improving the viability”, the inhibition at 0.1 µM ([4]; Mus musculus, BMDC, 0.1 µM, read-out: inhibition of IL-1β expression) was ~83.8% and the inhibition at 10 µM ([4]; Mus musculus, BMDC, 10 µM, read-out: inhibition of IL-1β expression) was ~53.8%. The “inhibition of IL-1β expression (in words)” value ([4]; FIG. 10) was “significantly inhibited”, the cortisol production (NCI-H295R cells) was “significantly inhibited by the administration of Compound 1, and this inhibition showed a concentration-dependent tendency” and the viability at 24 h [5] was ≥ 70%. The “toxicity on normal cells” value [6] was “does not exhibit toxicity on normal cells” and the “viability of cancer cells (in words)” value (cancer cells) was “decreased the viability of cancer cells in a concentration-dependent manner”.

Reference: US20260345595A1, “NOVEL FLUORENE DERIVATIVE COMPOUND AND USE THEREOF” (JD BIOSCIENCE INC., priority 2022, published 2026)
